From ChEMBL document CHEMBL1154198, “Chemical genetics of Plasmodium falciparum” (Nature, 2010) come the findings set out here.

As usually defined, the EC50 is the concentration that produces a half-maximal response. A high value points to lower potency in that assay.

The test system of test [1] is Plasmodium falciparum. Description: ST_JUDE: Plasmodium falciparum K1 EC50 (uM) as measured by SYBR green dye. The format is functional, organism-based.
Test [2] concerns Plasmodium falciparum. Description: ST_JUDE: Plasmodium falciparum 3D7 EC50 (uM) as measured by SYBR green dye. The format is functional, organism-based.

Take `O=C(N1CCCC1)C12CC3CC(CC(C3)C1)C2`: the concentration giving a half-maximal response (EC50) in test [1] came out at 7.65 µM; in test [2] it was 8.15 µM.

In the case of `CC(=O)NC(c1cccs1)c1cc(Cl)c2cccnc2c1O` (configuration not stated), the EC50 is 5.89 µM in test [1] and more than 15 µM in test [2].

As for `CC(C)=CCN1CCC(C(=O)Nc2ccc(-c3nc4ccccc4[nH]3)cc2)CC1`, the concentration for a half-maximal effect (EC50) in test [1] was determined as 6.76 µM; in test [2], 1.34 µM.

With `CCOc1ccc(C2N(C)c3ccccc3N2C)cc1`, the concentration for a half-maximal effect (EC50) in test [1] and in test [2] was more than 15 µM in each case.

Take `Nc1ccc(-c2nc3cc(Oc4ccc5[nH]c(-c6ccc(N)cc6)nc5c4)ccc3[nH]2)cc1`: the 50% effective concentration (EC50) was 1.69 µM in test [1] and 1.47 µM in test [2].

Take `CCN1C=CC(=Cc2ccc3cc(C)ccc3[n+]2C)C=C1`: the concentration for a half-maximal effect (EC50) in test [1] was 0.106 µM; in test [2] it was 0.265 µM.

With `O=C(CN1CCN(C2CCCC2)CC1)Nc1ccc([N+](=O)[O-])cc1C(=O)Nc1ccccc1F`, the EC50 in test [1] and in test [2] was more than 15 µM each time.

Take `CCc1c(C)c2cc3c(c(C)c2oc1=O)OCN(CCc1ccc(OC)cc1)C3`: the EC50 in test [1] was 0.514 µM; in test [2], more than 15 µM.

With `CCCOc1ccc(C(NC(=O)CCl)NC(=O)CCl)cc1OC`, the EC50 in test [1] came out at 3.74 µM; in test [2] it was 3.99 µM.

`Cc1ccc(C(=O)N2CCc3ccccc32)cc1Br`: the EC50 in test [1] and in test [2] was more than 15 µM throughout.

With `C[n+]1ccc(/C=C/c2ccc3c(c2)OCO3)cc1`, the 50% effective concentration (EC50) in test [1] is 2.39 µM; in test [2], 3.47 µM.

Consider `COc1cccc(NC2=C(N3CCCCC3)C(=O)c3ccccc3C2=O)c1`, for which the concentration giving a half-maximal response (EC50) is 0.153 µM in test [1] and 0.052 µM in test [2].

For `CCN(CC)S(=O)(=O)c1ccc(C(=O)Nc2nc(-c3ccccc3OC)cs2)cc1`, the concentration giving a half-maximal response (EC50) in test [1] and in test [2] was more than 15 µM each time.

With `Oc1c(C(Nc2ccccn2)c2cccc(OC3CCCC3)c2)ccc2cccnc12` (configuration not stated), the 50% effective concentration (EC50) in test [1] came to 4.16 µM; in test [2], 3.71 µM.

Turning to `Cc1ccnc(NC(c2ccccc2F)c2ccc3cccnc3c2O)c1` (configuration not stated), the EC50 in test [1] stood at 1.5 µM; in test [2], 1.86 µM.

Consider `CCCCN(C)S(=O)(=O)c1ccc(C(=O)N(Cc2ccccn2)c2nc3ccccc3s2)cc1`, for which the EC50 in test [1] and in test [2] was more than 15 µM in each case.

`COc1cccc(OC)c1CN1CCC(C(Cc2ccccc2F)N(C)C(=O)c2cccs2)CC1` (configuration not stated): the half-maximal effective concentration (EC50) in test [1] amounted to 4.22 µM; in test [2], 7.28 µM.

As to `COc1ccc(Nc2cc(C)nc(N3CCN(C(=O)c4ccccc4C(F)(F)F)CC3)n2)cc1`, the EC50 in test [1] worked out at 1.57 µM; in test [2], 3.59 µM.

Regarding `CCOC(=O)C1=C(CN(C)c2ccc(F)cc2)NC(=O)NC1c1ccc(Cl)cc1` (configuration not stated), the EC50 in test [1] was 6.3 µM; in test [2], more than 15 µM.

`Cc1ccc2c(c1)c(-c1ccccc1)c(-c1ccccc1)n2CC(O)CNCCc1ccccc1` (configuration not stated): the EC50 in test [1] is 0.602 µM; in test [2] it was 1.41 µM.

As for `O=C(Nc1ccc(N2CCCCC2)c(Cl)c1)c1ccc(F)cc1`, the half-maximal effective concentration (EC50) in test [1] is 0.801 µM; in test [2] it was more than 15 µM.

Turning to `Cc1ccc(C)c(NC(=O)CSc2ccc(Cl)cc2)c1`, the EC50 in test [1] and in test [2] was more than 15 µM throughout.

Consider `CC1(C)Cc2ccccc2C(NCC(=O)O)=N1`, for which the EC50 in test [1] and in test [2] was more than 15 µM each time.

For `CCOc1ccc(CCNC(=O)Nc2cc(C(F)(F)F)cc(C(F)(F)F)c2)cc1OC`, the 50% effective concentration (EC50) in test [1] was found to be 5.6 µM; in test [2] it was 2.83 µM.

Turning to `CCN(C(=O)Nc1ccccc1OC)c1nc(-c2ccccc2)cs1`, the EC50 in test [1] and in test [2] was more than 15 µM throughout.

Consider `Cc1ccc(Nc2nc(N/N=C/c3ccc(/C=N/Nc4nc(Nc5ccc(C)cc5)nc(N5CCOCC5)n4)cc3)nc(N3CCOCC3)n2)cc1`, for which the concentration giving a half-maximal response (EC50) in test [1] stood at 1.43 µM; in test [2], 1.58 µM.

In the case of `COc1ccccc1CCN1COc2c(cc3c(C)c(C)c(=O)oc3c2C)C1`, the half-maximal effective concentration (EC50) in test [1] worked out at 0.49 µM; in test [2], 1.5 µM.

With `O=C1c2ccc3c4c(ccc(c24)C(=O)N1CCO)C(=O)N(CCO)C3=O`, the values for the EC50 in test [1] and in test [2] were 2.7 µM and more than 15 µM, respectively.

For `COc1ccc(Cl)cc1NC(=S)N1CCN(c2ccc(C#N)cc2)CC1`, the EC50 turned out to be 1.29 µM in test [1] and 0.857 µM in test [2].

Turning to `COCc1cc(CN2CCN(c3cccc(C(F)(F)F)c3)CC2)c(O)c2ncccc12`, the EC50 in test [1] worked out at 2.25 µM; in test [2] it was 1.82 µM.

Turning to `CC[n+]1cccc(-c2nc3ccccc3s2)c1`, the figures for the concentration giving a half-maximal response (EC50) in test [1] and in test [2] were 5.92 µM and 7.66 µM, respectively.

With `Cc1ccc(Nc2cc(C)nc(Nc3ccc(NS(=O)(=O)c4ccc(Cl)cc4)cc3)n2)cc1`, the EC50 in test [1] was more than 15 µM; in test [2], 0.432 µM.

`CCOc1ccc2c(c1)CN(Cc1ccc(Cl)cc1)CO2`: the concentration giving a half-maximal response (EC50) in test [1] was found to be 0.284 µM; in test [2], 1.49 µM.

As for `CC(C)c1ccccc1Oc1c(C(F)(F)F)oc2c(CN3CCCC3)c(O)ccc2c1=O`, the EC50 in test [1] came to 1 µM; in test [2], 1.58 µM.

As for `CCOc1ccc(Nc2cc(C)nc(-n3nc(C)cc3C)n2)cc1`, the concentration giving a half-maximal response (EC50) amounted to 4.99 µM in test [1] and 5.02 µM in test [2].

For `CCc1c(C)nc(-n2nc(C)cc2NC(=O)c2ccccc2F)nc1O`, the EC50 in test [1] and in test [2] was more than 15 µM each time.

Turning to `O=C(Nc1cc(OCC(F)(F)F)cc(OCC(F)(F)C(F)F)c1)c1cccnc1`, the EC50 in test [1] came out at 4.42 µM; in test [2] it was 3.84 µM.

On to `CSc1cccc(NC(=O)N2CCC(CO)(Cc3ccccc3Cl)CC2)c1`, for which the 50% effective concentration (EC50) in test [1] and in test [2] was more than 15 µM each time.

With `Oc1ccc(Cl)cc1Nc1ncnc2ccc(Br)cc12`, the EC50 in test [1] is 3.85 µM; in test [2], more than 15 µM.

For `FC(F)(F)c1cccc(NC(=S)Nc2cccc(Cl)c2)c1`, the concentration giving a half-maximal response (EC50) in test [1] amounted to 2.95 µM; in test [2], 3.79 µM.

For the molecule `Cc1ccc(C2Nn3c(nnc3-c3ccccc3)SC2C(=O)N2CCCCCC2)cc1` (configuration not stated), the EC50 is 3.91 µM in test [1] and 2.94 µM in test [2].

Regarding `CCOc1ccc2nc(N(Cc3cccnc3)C(=O)c3cccs3)sc2c1`, the 50% effective concentration (EC50) in test [1] is 7 µM; in test [2] it was 6.99 µM.

With `O=C(Nc1ccccc1F)C1c2ccccc2C(=O)N(C2CCCC2)C1c1cccs1` (configuration not stated), the 50% effective concentration (EC50) in test [1] is 2.55 µM; in test [2] it was 1.77 µM.

Take `CCS(=O)(=O)c1ccc(OC)c(/N=N/c2ccc(O)c3ncccc23)c1`: the concentration giving a half-maximal response (EC50) in test [1] was more than 15 µM; in test [2], 4.96 µM.

As for `CCCCc1ccc(Nc2cc(C)nc(-n3nc(C)cc3C)n2)cc1`, the half-maximal effective concentration (EC50) in test [1] is 4.64 µM; in test [2], more than 15 µM.

For the molecule `CCN(CC)CCN1C(=O)c2oc3ccccc3c(=O)c2C1c1cccc(OC)c1` (configuration not stated), the values for the EC50 in test [1] and in test [2] were 1.05 µM and 0.995 µM, respectively.

With `COc1ccccc1[N+]1=C2CCCCN2C(O)(c2ccc(Cl)cc2)C1` (configuration not stated), the EC50 in test [1] was 7.71 µM; in test [2], more than 15 µM.

Take `COc1cccc(-c2nn(C)c3sc(C(=O)NCCN4CCN(Cc5ccccc5)CC4)cc23)c1`: the EC50 in test [1] and in test [2] was more than 15 µM in each case.

On to `COc1ccc(/C=C2\Oc3c(ccc(O)c3CN3CCCCC3)C2=O)cc1`, for which the EC50 was 0.846 µM in test [1] and 1.63 µM in test [2].

Consider `COc1ccc(N2CCN(CC(O)COc3ccc(C)cc3C(C)(C)C)CC2)cc1` (configuration not stated), for which the EC50 in test [1] and in test [2] was more than 15 µM throughout.

Consider `COc1ccc(NC(=O)CSc2nc(-c3ccccc3Cl)ns2)c(OC)c1`, for which the EC50 was found to be 4.59 µM in test [1] and 5.43 µM in test [2].
